pIC50: −log10 of the molar value.
Tested on: Phosphorylation of STAT6 in human A549 cells
Assay: Phosphorylated STAT6 (pSTAT6) flow cytometry assay in human A549 cells
Assay type: cell-based
Conditions: read-out: STAT6 IL4 pSTAT6 assay in A549 cells: Average IC50
Text: Example 3. Phosphorylated STAT6 (pSTAT6) Flow Cytometry Assay in Human A549 Cells
Phosphorylation of STAT6 in human A549 cells was quantitatively measured using flow cytometry technology.

| SMILES | pIC50 |
| --- | --- |
| COc1c(F)cc(F)cc1-c1cc(C2=CCCN(C(=O)CCn3ccnn3)C2)c(F)c2[nH]c(C(=O)N3CCN(c4ncccc4OC4CC4)CC3)cc12 [Example I-597] | > 7.00 |
| COc1cc(F)ccc1-c1cc(C2=CCCN(C(=O)CCn3ccnn3)C2)c(F)c2[nH]c(C(=O)N3CCN(c4ccccc4OC)CC3)cc12 [Example I-598] | > 7.00 |
| COc1ccccc1N1CCN(C(=O)c2cc3c(-c4cccnc4OC)cc(C4=CCCN(C(=O)CCn5ccnn5)C4)c(F)c3[nH]2)CC1 [Example I-599] | > 7.00 |
| COc1cc(F)c(F)cc1-c1cc(C2=CCCN(C(=O)CCn3ccnn3)C2)c(F)c2[nH]c(C(=O)N3CCN(c4ccccc4OC)CC3)cc12 [Example I-600] | > 7.00 |
| COc1ccccc1N1CCN(C(=O)c2cc3c(-c4cc(F)cc(F)c4OC)cc(C4=CCCN(C(=O)CCn5ccnn5)C4)c(F)c3[nH]2)CC1 [Example I-601] | > 7.00 |
| COc1ncccc1-c1cc(C2=CCCN(C(=O)CCn3ccnn3)C2)c(F)c2[nH]c(C(=O)N3CCN(C4CC4)CC3)cc12 [Example I-602] | > 7.00 |
| COc1c(F)cc(F)cc1-c1cc(C2=CCCN(C(=O)CCn3ccnn3)C2)c(F)c2[nH]c(C(=O)N3CCN(C4CC4)CC3)cc12 [Example I-603] | > 7.00 |
| COc1cc(F)c(F)cc1-c1cc(C2=CCCN(C(=O)CCn3ccnn3)C2)c(F)c2[nH]c(C(=O)N3CCN(C4CC4)CC3)cc12 [Example I-604] | > 7.00 |
| COc1cnccc1-c1cc(C2=CCCN(C(=O)CCn3ccnn3)C2)c(F)c2[nH]c(C(=O)N3CCN(C4CC4)CC3)cc12 [Example I-605] | > 7.00 |
| COc1cccc(N2CCN(C(=O)c3cc4c(-c5cccnc5OC)cc(C5=CCCN(C(=O)CCn6ccnn6)C5)c(F)c4[nH]3)CC2)n1 [Example I-606] | > 7.00 |
| COc1cccnc1N1CCN(C(=O)c2cc3c(-c4cnccc4C(C)C)cc(C4=CCCN(C(=O)CCn5ccnn5)C4)c(F)c3[nH]2)CC1 [Example I-607] | < 4.00 |
| CCc1cnccc1-c1cc(C2=CCCN(C(=O)CCn3ccnn3)C2)c(F)c2[nH]c(C(=O)N3CCN(c4ncccc4OC)CC3)cc12 [Example I-608] | < 4.00 |
| COc1cc(N(C)C)ccc1-c1cc(C2=CCCN(C(=O)CCn3ccnn3)C2)c(F)c2[nH]c(C(=O)N3CCN(c4ncccc4OC4CC4)CC3)cc12 [Example I-609] | > 7.00 |
| COc1cc(N(C)C)ccc1-c1cc(C2=CCCN(C(=O)CCn3ccnn3)C2)c(F)c2[nH]c(C(=O)N3CCN(c4ccccc4OC)CC3)cc12 [Example I-610] | > 7.00 |
| COc1cccc(N2CCN(C(=O)c3cc4c(-c5ccncc5OC)cc(C5=CCCN(C(=O)CCn6ccnn6)C5)c(F)c4[nH]3)CC2)n1 [Example I-612] | > 7.00 |
| COc1cc(F)ccc1-c1cc(C2=CCCN(C(=O)CCn3ccnn3)C2)c(F)c2[nH]c(C(=O)N3CCN(c4ncc(F)cc4OC)CC3)cc12 [Example I-613] | > 7.00 |
| COc1cc(F)cnc1-c1cc(C2=CCCN(C(=O)CCn3ccnn3)C2)c(F)c2[nH]c(C(=O)N3CCN(c4ncc(F)cc4OC)CC3)cc12 [Example I-614] | > 7.00 |
| COc1cc(F)cnc1N1CCN(C(=O)c2cc3c(-c4cccc(O)c4)cc(C4=CCCN(C(=O)CCn5ccnn5)C4)c(F)c3[nH]2)CC1 [Example I-615] | > 7.00 |
| COc1cc(F)cnc1N1CCN(C(=O)c2cc3c(-c4cccc(CO)c4C)cc(C4=CCCN(C(=O)CCn5ccnn5)C4)c(F)c3[nH]2)CC1 [Example I-616] | < 4.00 |
| COc1cc(F)cnc1N1CCN(C(=O)c2cc3c(-c4ccnc(N5CCN(C)CC5)c4)cc(C4=CCCN(C(=O)CCn5ccnn5)C4)c(F)c3[nH]2)CC1 [Example I-617] | > 7.00 |
| CCOc1ccc(-c2cc(C3=CCCN(C(=O)CCn4ccnn4)C3)c(F)c3[nH]c(C(=O)N4CCN(c5ncc(F)cc5OC)CC4)cc23)c(OCC)c1 [Example I-618] | > 7.00 |
| CCc1ccncc1-c1cc(C2=CCCN(C(C)=O)C2)c(F)c2[nH]c(C(=O)N3CCN(c4ncccc4OC)CC3)cc12 [Example I-619] | 6.00 to 7.00 |
| COc1cc(F)cnc1N1CCN(C(=O)c2cc3c(-c4cccc(-n5nc(C)cc5C)c4)cc(C4=CCCN(C(=O)CCn5ccnn5)C4)c(F)c3[nH]2)CC1 [Example I-620] | > 7.00 |
| COc1cc(F)cnc1N1CCN(C(=O)c2cc3c(-c4cnn(C)c4-c4ccccc4)cc(C4=CCCN(C(=O)CCn5ccnn5)C4)c(F)c3[nH]2)CC1 [Example I-621] | > 7.00 |
| COc1cc(F)cnc1N1CCN(C(=O)c2cc3c(-c4ccc5c(c4)c(C4CC4)nn5C)cc(C4=CCCN(C(=O)CCn5ccnn5)C4)c(F)c3[nH]2)CC1 [Example I-622] | > 7.00 |
| COc1cc(F)cnc1N1CCN(C(=O)c2cc3c(-c4ccc5c(C)nn(C)c5c4)cc(C4=CCCN(C(=O)CCn5ccnn5)C4)c(F)c3[nH]2)CC1 [Example I-623] | > 7.00 |
| COc1cc(F)cnc1N1CCN(C(=O)c2cc3c(-c4ccc5nn(C)cc5c4)cc(C4=CCCN(C(=O)CCn5ccnn5)C4)c(F)c3[nH]2)CC1 [Example I-624] | > 7.00 |

| SMILES | pIC50 |
| --- | --- |
| COc1cc(F)cnc1N1CCN(C(=O)c2cc3c(-c4cnn(-c5ccccc5)c4C)cc(C4=CCCN(C(=O)CCn5ccnn5)C4)c(F)c3[nH]2)CC1 [Example I-625] | > 7.00 |
| COc1cc(F)cnc1N1CCN(C(=O)c2cc3c(-c4cccc(-c5ccncc5)c4)cc(C4=CCCN(C(=O)CCn5ccnn5)C4)c(F)c3[nH]2)CC1 [Example I-626] | > 7.00 |
| COc1cc(F)cnc1N1CCN(C(=O)c2cc3c(-c4cccnc4C4CC4)cc(C4=CCCN(C(=O)CCn5ccnn5)C4)c(F)c3[nH]2)CC1 [Example I-628] | > 7.00 |
| COc1cc(F)cnc1N1CCN(C(=O)c2cc3c(-c4cccc(-c5cccnc5)c4)cc(C4=CCCN(C(=O)CCn5ccnn5)C4)c(F)c3[nH]2)CC1 [Example I-629] | > 7.00 |
| COc1cc(F)cnc1N1CCN(C(=O)c2cc3c(-c4cc(C)nc5ccccc45)cc(C4=CCCN(C(=O)CCn5ccnn5)C4)c(F)c3[nH]2)CC1 [Example I-630] | > 7.00 |
| COc1cc(F)cnc1N1CCN(C(=O)c2cc3c(-c4c(F)ccc5ccc(C)nc45)cc(C4=CCCN(C(=O)CCn5ccnn5)C4)c(F)c3[nH]2)CC1 [Example I-631] | > 7.00 |
| COc1cc(F)cnc1N1CCN(C(=O)c2cc3c(-c4cc(C)nc(C)c4)cc(C4=CCCN(C(=O)CCn5ccnn5)C4)c(F)c3[nH]2)CC1 [Example I-632] | > 7.00 |
| COc1cc(F)cnc1N1CCN(C(=O)c2cc3c(-c4cc(C)cc5cccnc45)cc(C4=CCCN(C(=O)CCn5ccnn5)C4)c(F)c3[nH]2)CC1 [Example I-633] | > 7.00 |
| CC#Cc1cc(-c2cc(C3=CCCN(C(=O)CCn4ccnn4)C3)c(F)c3[nH]c(C(=O)N4CCN(c5ncc(F)cc5OC)CC4)cc23)ccn1 [Example I-634] | > 7.00 |
| COc1cc(F)cnc1N1CCN(C(=O)c2cc3c(-c4ccc(C)c5ncccc45)cc(C4=CCCN(C(=O)CCn5ccnn5)C4)c(F)c3[nH]2)CC1 [Example I-635] | > 7.00 |
| COc1cc(F)cnc1N1CCN(C(=O)c2cc3c(-c4cncc(C5CC5)c4)cc(C4=CCCN(C(=O)CCn5ccnn5)C4)c(F)c3[nH]2)CC1 [Example I-637] | > 7.00 |
| COc1cc(F)cnc1N1CCN(C(=O)c2cc3c(-c4cccc(OC(C)C)c4)cc(C4=CCCN(C(=O)CCn5ccnn5)C4)c(F)c3[nH]2)CC1 [Example I-638] | > 7.00 |
| COc1cc(F)cnc1N1CCN(C(=O)c2cc3c(C4=CCOC4)cc(C4=CCCN(C(=O)CCn5ccnn5)C4)c(F)c3[nH]2)CC1 [Example I-639] | > 7.00 |
| COc1ccc(-c2cc(C3=CCCN(C(=O)CCn4ccnn4)C3)c(F)c3[nH]c(C(=O)N4CCN(c5ncc(F)cc5OC)CC4)cc23)c(C2CC2)c1 [Example I-641] | > 7.00 |
| CCOc1cc(-c2cc(C3=CCCN(C(=O)CCn4ccnn4)C3)c(F)c3[nH]c(C(=O)N4CCN(c5ncc(F)cc5OC)CC4)cc23)cc(F)c1F [Example I-642] | 6.00 to 7.00 |
| CCOc1c(F)cccc1-c1cc(C2=CCCN(C(=O)CCn3ccnn3)C2)c(F)c2[nH]c(C(=O)N3CCN(c4ncc(F)cc4OC)CC3)cc12 [Example I-643] | > 7.00 |
| COc1cc(F)cnc1N1CCN(C(=O)c2cc3c(C=C4CCOCC4)cc(C4=CCCN(C(=O)CCn5ccnn5)C4)c(F)c3[nH]2)CC1 [Example I-644] | > 7.00 |
| COc1cc(F)cnc1N1CCN(C(=O)c2cc3c(-c4ccccc4C4CC4)cc(C4=CCCN(C(=O)CCn5ccnn5)C4)c(F)c3[nH]2)CC1 [Example I-645] | > 7.00 |
| COc1cc(F)cnc1N1CCN(C(=O)c2cc3c(-c4cc(C)ncc4C)cc(C4=CCCN(C(=O)CCn5ccnn5)C4)c(F)c3[nH]2)CC1 [Example I-646] | > 7.00 |
| COc1cc(F)cnc1N1CCN(C(=O)c2cc3c(-c4cncc(-c5ccccc5)c4)cc(C4=CCCN(C(=O)CCn5ccnn5)C4)c(F)c3[nH]2)CC1 [Example I-647] | > 7.00 |
| COc1cc(F)cnc1N1CCN(C(=O)c2cc3c(-c4ccc(C)c(C#N)c4)cc(C4=CCCN(C(=O)CCn5ccnn5)C4)c(F)c3[nH]2)CC1 [Example I-648] | > 7.00 |
| COc1cc(F)cnc1N1CCN(C(=O)c2cc3c(-c4cccc(C5(C#N)CC5)c4)cc(C4=CCCN(C(=O)CCn5ccnn5)C4)c(F)c3[nH]2)CC1 [Example I-649] | > 7.00 |
| COc1cc(F)cnc1N1CCN(C(=O)c2cc3c(-c4cc(C5(C#N)CC5)ccc4F)cc(C4=CCCN(C(=O)CCn5ccnn5)C4)c(F)c3[nH]2)CC1 [Example I-650] | > 7.00 |
| COc1cc(F)cnc1N1CCN(C(=O)c2cc3c(-c4cncc(OC(F)F)c4)cc(C4=CCCN(C(=O)CCn5ccnn5)C4)c(F)c3[nH]2)CC1 [Example I-651] | > 7.00 |
| CCCOc1ncccc1-c1cc(C2=CCCN(C(=O)CCn3ccnn3)C2)c(F)c2[nH]c(C(=O)N3CCN(c4ncc(F)cc4OC)CC3)cc12 [Example I-652] | > 7.00 |
| COc1cc(F)cnc1N1CCN(C(=O)c2cc3c(-c4ccnc(OC(F)F)c4)cc(C4=CCCN(C(=O)CCn5ccnn5)C4)c(F)c3[nH]2)CC1 [Example I-653] | > 7.00 |
| CCCOc1ncc(C)cc1-c1cc(C2=CCCN(C(=O)CCn3ccnn3)C2)c(F)c2[nH]c(C(=O)N3CCN(c4ncc(F)cc4OC)CC3)cc12 [Example I-654] | > 7.00 |

Source: US20250214977A1, “STAT6 INHIBITORS AND USES THEREOF” (Kymera Therapeutics, Inc., priority 2024, published 2025)
